Key:
[1] = tested on: second instar larvae of diamond backmoth (Plutella xylostella); experiment: Insecticidal activity against diamond backmoth, leaf disc spraying by airbrush; assay type: in vivo; details: mortality after 72 hrs, sprayed cabbage leaf disc
Procedure: To determine the insecticidal and acaricidal activity of selected compounds by the following procedures:
Compounds were dissolved in mixed solvent (acetone:methanol=1:1), and diluted to required concentration with water containing 0.1% of tween 80.
The second instar larvae of diamond backmoth (Plutella xylostella) were used in biological test. The method of spraying by airbrush was employed.
Determination of insecticidal activity against diamond backmoth: The cabbage leaves were made into plates of 1 cm diameter by punch. A test solution (0.5 ml) was sprayed by airbrush at the pressure of 0.7 kg/cm^2 to both sides of every plate. 10 Second instar larvae were put into the petri-dishes after the leaf disc air-dried and 3 replicates were set for each treatment. Then the insects were maintained in observation room ([…], 60-70% R.H.). Scores were conducted and mortalities were calculated after 72 hrs.

[2] = tested on: wheat powdery mildew; experiment: Fungicidal activity in vivo on potted plants; details: 400 ppm; sprayed on potted plant, inoculation after 24 hours, visual assessment after about 1 week
Procedure: Determination of fungicidal activities against plant diseases of selected compounds were carried out by the following procedure:
Determination of Fungicidal Activity In Vivo:
Plants were prepared in pot. Compounds were dissolved in acetone and diluted to required concentration by water containing 0.1% (wt) Tween80. Test solution was sprayed onto potted plant. Pathogen inoculation was carried out after 24 hours, then plants were hold in growth chambers maintaining constant temperature and moisture for infection. When untreated plant was under desirable disease severity (after 1 week approximately), assessment was carried out by visual observation.

SMILES	control of the second instar larvae of diamond backmoth ([1]; dose 100 mg/L) [%]	other results
Cn1nc(-c2ccccc2)cc1OCCCOc1c(Cl)cc(OCC=C(Cl)Cl)cc1Cl [Compound 1]	100	–
Cn1nc(-c2ccc(Cl)cc2)cc1OCCCOc1c(Cl)cc(OCC=C(Cl)Cl)cc1Cl [Compound 2]	100	control of wheat powdery mildew [2]: more than 70%; control of the second instar larvae of diamond backmoth ([1]; dose 25 mg/L): 100%
CSc1ccc(-c2cc(OCCCOc3c(Cl)cc(OCC=C(Cl)Cl)cc3Cl)n(C)n2)cc1 [Compound 8]	100	–
Cn1nc(-c2ccc(Cl)cc2Cl)cc1OCCCOc1c(Cl)cc(OCC=C(Cl)Cl)cc1Cl [Compound 11]	100	–
COc1ccc(-c2cc(OCCCOc3c(Cl)cc(OCC=C(Cl)Cl)cc3Cl)n(C)n2)cc1 [Compound 13]	100	–
Cn1nc(-c2ccc(Br)cc2)cc1OCCCOc1c(Cl)cc(OCC=C(Cl)Cl)cc1Cl [Compound 16]	100	–
Cc1ccc(-c2cc(OCCCOc3c(Cl)cc(OCC=C(Cl)Cl)cc3Cl)n(C)n2)cc1 [Compound 17]	100	–
CCc1ccc(-c2cc(OCCCOc3c(Cl)cc(OCC=C(Cl)Cl)cc3Cl)n(C)n2)cc1 [Compound 18]	100	–
COc1ccccc1-c1cc(OCCCOc2c(Cl)cc(OCC=C(Cl)Cl)cc2Cl)n(C)n1 [Compound 24]	100	–
Cc1ccc(-c2cc(OCCCOc3c(Cl)cc(OCC=C(Cl)Cl)cc3Cl)n(C)n2)c(C)c1 [Compound 26]	100	–
CCCc1ccc(-c2cc(OCCCOc3c(Cl)cc(OCC=C(Cl)Cl)cc3Cl)n(C)n2)cc1 [Compound 38]	100	–
Cc1c(-c2ccccc2)nn(C)c1OCCCOc1c(Cl)cc(OCC=C(Cl)Cl)cc1Cl [Compound 76]	100	–
Cc1c(-c2ccc(Cl)cc2)nn(C)c1OCCCOc1c(Cl)cc(OCC=C(Cl)Cl)cc1Cl [Compound 77]	100	–
Cc1c(-c2ccc(Cl)cc2Cl)nn(C)c1OCCCOc1c(Cl)cc(OCC=C(Cl)Cl)cc1Cl [Compound 86]	100	–
Cc1ccc(-c2nn(C)c(OCCCOc3c(Cl)cc(OCC=C(Cl)Cl)cc3Cl)c2C)cc1 [Compound 92]	100	–
Cn1nc(-c2ccc(Cl)cc2)cc1OCCOc1c(Cl)cc(OCC=C(Cl)Cl)cc1Cl [Compound 225]	100	control of the second instar larvae of diamond backmoth ([1]; dose 25 mg/L): 100%
Cn1nc(-c2ccc(Cl)cc2)cc1OCCCCOc1c(Cl)cc(OCC=C(Cl)Cl)cc1Cl [Compound 247]	100	control of the second instar larvae of diamond backmoth ([1]; dose 25 mg/L): 100%
Cn1nc(-c2ccc(Cl)cc2)cc1OCCCCOc1ccc(OCC=C(Cl)Cl)cc1Cl [Compound 248]	100	control of the second instar larvae of diamond backmoth ([1]; dose 25 mg/L): 100%
Cc1c(-c2ccccc2)nn(C)c1OCCCCOc1c(Cl)cc(OCC=C(Cl)Cl)cc1Cl [Compound 257]	100	–
Cn1nc(OCCCOc2c(Cl)cc(OCC=C(Cl)Cl)cc2Cl)cc1-c1ccccc1 [Compound 268]	100	control of the second instar larvae of diamond backmoth ([1]; dose 25 mg/L): 100%
Cn1nc(OCCCOc2c(Cl)cc(OCC=C(Cl)Cl)cc2Cl)cc1-c1ccc(Cl)cc1 [Compound 269]	100	control of the second instar larvae of diamond backmoth ([1]; dose 25 mg/L): 100%
Cn1nc(OCCCOc2c(Cl)cc(OCC=C(Cl)Cl)cc2Cl)cc1-c1ccc(Cl)cc1Cl [Compound 278]	100	–

SMILES	control of the second instar larvae of diamond backmoth ([1]; dose 100 mg/L) [%]	other results
COc1ccc(-c2cc(OCCCOc3c(Cl)cc(OCC=C(Cl)Cl)cc3Cl)nn2C)cc1 [Compound 280]	100	–
Cn1nc(OCCCOc2c(Cl)cc(OCC=C(Cl)Cl)cc2Cl)cc1-c1ccc(Br)cc1 [Compound 283]	100	–
Cc1ccc(-c2cc(OCCCOc3c(Cl)cc(OCC=C(Cl)Cl)cc3Cl)nn2C)cc1 [Compound 284]	100	–
Cc1ccc(-c2cc(OCCCOc3c(Cl)cc(OCC=C(Cl)Cl)cc3Cl)nn2C)c(C)c1 [Compound 293]	100	–
Cn1nc(OCCCOc2c(Cl)cc(OCC=C(Cl)Cl)cc2Cl)cc1-c1ccc(C(C)(C)C)cc1 [Compound 306]	100	–
Cc1c(OCCCOc2c(Cl)cc(OCC=C(Cl)Cl)cc2Cl)nn(C)c1-c1ccc(F)cc1 [Compound 352]	100	control of the second instar larvae of diamond backmoth ([1]; dose 25 mg/L): 100%
CCOc1ccc(-c2c(C)c(OCCCOc3c(Cl)cc(OCC=C(Cl)Cl)cc3Cl)nn2C)cc1 [Compound 356]	100	–
Cc1c(OCCCOc2c(Cl)cc(OCC=C(Cl)Cl)cc2Cl)nn(C)c1-c1ccc(Cl)cc1Cl [Compound 360]	100	–
Cc1c(OCCCOc2c(Cl)cc(OCC=C(Cl)Cl)cc2Cl)nn(C)c1-c1ccc(Cl)c(Cl)c1 [Compound 361]	100	–
COc1ccc(-c2c(C)c(OCCCOc3c(Cl)cc(OCC=C(Cl)Cl)cc3Cl)nn2C)cc1 [Compound 363]	100	–
Cc1ccc(-c2c(C)c(OCCCOc3c(Cl)cc(OCC=C(Cl)Cl)cc3Cl)nn2C)cc1 [Compound 367]	100	control of the second instar larvae of diamond backmoth ([1]; dose 25 mg/L): 100%
CCc1ccc(-c2c(C)c(OCCCOc3c(Cl)cc(OCC=C(Cl)Cl)cc3Cl)nn2C)cc1 [Compound 368]	100	–
Cc1ccc(-c2c(C)c(OCCCOc3c(Cl)cc(OCC=C(Cl)Cl)cc3Cl)nn2C)cc1C [Compound 377]	100	control of the second instar larvae of diamond backmoth ([1]; dose 25 mg/L): 100%
Cc1c(OCCCOc2c(Cl)cc(OCC=C(Cl)Cl)cc2Cl)nn(C)c1-c1ccc(C(C)C)cc1 [Compound 387]	100	control of the second instar larvae of diamond backmoth ([1]; dose 25 mg/L): 100%
Cc1c(OCCCOc2c(Cl)cc(OCC=C(Cl)Cl)cc2Cl)nn(C)c1-c1ccc(C(C)(C)C)cc1 [Compound 389]	100	–
Cn1nc(OCCOc2c(Cl)cc(OCC=C(Cl)Cl)cc2Cl)cc1-c1ccc(Cl)cc1 [Compound 500]	100	–
Cn1nc(OCCCCOc2c(Cl)cc(OCC=C(Cl)Cl)cc2Cl)cc1-c1ccc(Cl)cc1 [Compound 522]	100	–
Cc1c(OCCCCOc2c(Cl)cc(OCC=C(Cl)Cl)cc2Cl)nn(C)c1-c1ccccc1 [Compound 532]	100	–
Cc1ccc(-c2c(C)c(OCCCCOc3c(Cl)cc(OCC=C(Cl)Cl)cc3Cl)nn2C)cc1 [Compound 538]	100	–
ClC(Cl)=CCOc1cc(Cl)c(OCCCOc2cnn(-c3ccc(Cl)cc3)c2)c(Cl)c1 [Compound 546]	100	–
FC(F)(F)c1ccc(OCCCOc2c(Cl)cc(OCC=C(Cl)Cl)cc2Cl)nc1 [pyridalyl, Pyridalyl, reference compound]	100	control of the second instar larvae of diamond backmoth ([1]; dose 6.25 mg/L): 65%; control of the second instar larvae of diamond backmoth ([1]; dose 25 mg/L): 100%

Reference: patent US8222280B2, “Ether compounds with nitrogen-containing 5-member heterocycle and uses thereof” (Sinochem Corporation, priority 2008, dated 2012)
